Reference: publication PMC8026324, “In Vitro Antiplasmodial, Heme Polymerization, and Cytotoxicity of Hydroxyxanthone Derivatives” (Journal of Tropical Medicine, 2021)
≈ marks a conversion by molar mass, not a printed value.

Legend:
[1] = test system: Plasmodium falciparum 3D-7 (chloroquine-sensitive strain); assay: In vitro antiplasmodial activity assay, microscopic method, strain 3D-7; type: cell-based
Procedure, shortened: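 Sorbitol-synchronized ring-stage parasites at 1% parasitemia, 2% haematocrit in RPMI with 10% human O serum, exposed to compound dilutions in triplicate for 72 h at 37 °C. Parasitemia counted on Giemsa smears (≥1,000 erythrocytes); IC50 from growth inhibition by probit analysis.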

WIDR = test system: WIDR; set-up: method as in earlier work; conditions: cited from earlier work
[2] = test system: Plasmodium falciparum 3D-7; assay: Flow cytometry method (SYBR green I / CD235A-PE); type: cell-based; conditions: 72 hours incubation
Method: The Plasmodium falciparum strains of 3D-7 were used in this method. The plasmodium synchronized to obtain the ring stage by adding 5% of D-sorbitol. Plasmodium with 1% parasitemia was cultured in a 96-well microplate. The testing compounds were added in duplicate and incubated at 37°C for 72 hours. The samples were centrifuged with a speed of 1000 rpm for 10 minutes and washed twice in 100 μL of phosphate-buffered saline (PBS). Samples were incubated with 50 μL of 1 : 1000 SYBR green I and 20μL of CD235A-PE for 15 minutes at room temperature. Cells were washed and resuspended in PBS. Data were obtained using a FACSCalibur with the acquisition of 1,00,000 events per sample. Initial gating was done with uninfected and unstained erythrocytes to account for erythrocyte autofluorescence. The control plasmodium-infected erythrocyte was referred as 100% growth to calculate the percentage of growth inhibition after treated with testing compound.

Vero cells = assay: In vitro cytotoxicity test, MTT assay on Vero cell line; type: cell-based; conditions: for IC50: MTT assay
Method: The in vitro cytotoxicity test was conducted using the 3-(4,5-dimethylthiazol-2-yl)2,5-diphenyltetrazolium bromide (MTT) assay method on Vero cell line culture using the Anderson et al.'s modified method.
The cell was removed from the cryo medium. Then, the cell was thawed at 37°C. The liquid cell was subsequently transferred to the tube and a culture medium was added to a volume of 10 mL. Then, the suspension was centrifuged for 15 minutes so that it would form cell pellets. The supernatant was removed and 1 mL of culture medium was added to the cell pellets. Finally, the suspension was transferred to the Petri dish and incubated in the incubator with 5% of CO2 at 37°C.
The medium of Vero cell culture was removed, and then the cell was washed using a PBS solution with a volume of PBS ± 1/2 of the initial medium volume. This step was done twice and 1 mL of trypsin 0.25% was added. Subsequently, the cell was incubated in the CO2 incubator at 37°C for 3 minutes. Then, the cell was resuspended using 2 mL of culture medium and PBS solution was added up to 10 mL. The suspension was centrifuged for 15 minutes so that it formed pellets. Pellets were added with 1 mL of culture medium and resuspended. Take 10 μL of the cell suspension and density of cells was calculated.
Then, the cell was added with culture medium to 10 mL. A total of 100 μL of such suspensions was transferred into each well of the 96-well microplate, but three of the wells were emptied as medium controls. Subsequently, the microplate was incubated in a 5% CO2 incubator at 37°C.
Each hydroxyxanthone derivative compound was dissolved in DMSO, and a variety of concentrations were prepared in the medium. Each concentration of the testing compound was added into the 96-well microplate triplicately. Cell control and medium control were not given a testing compound solution. The medium control remained blank, while the cell control contained culture medium only. […] Then, the cell was incubated in a 5% CO2 incubator at 37°C for 24 hours.
After the cell was incubated for 24 hours, the medium was discarded and washed with PBS. Then, each well was added with 100 μL of 5 mg/mL of MTT solution. The 96-well microplate was incubated again in the incubator of CO2 at 37°C for 4 hours. Then, 100 μL of 10% of SDS in 0.01 MHCl was added. The cells were placed in a dark room at room temperature for 24 hours.
The absorbance was measured using the enzyme-linked immunosorbent assay (ELISA) reader at 595 nm wavelength. The cytotoxicity test on the Vero cells was done by calculating the percentage of Vero cell inhibition of the absorption value of the test compound, cell control, and medium control. The cytotoxic effect was expressed as IC50. The IC50 value was obtained from the probit analysis by using SPSS software (IBM Corp., Chicago). The degree of selectivity was expressed as a selectivity index. The selectivity index was obtained from the ratio between the IC50 cytotoxic effect on Vero cells and IC50 antiplasmodial activity on Plasmodium. A compound is said to be safe if the value of the selectivity index is >10 [20].

- IC50 ([1]; Plasmodium falciparum, 72 hours incubation, microscopic method, read-out: IC50 on P. falciparum 3D-7): 0.0061 ± 0.00201 mM
SMILES: O=c1c2c(O)cccc2oc2cc(O)cc(O)c12 [HX1, 1,6,8-trihydroxyxanthone]
- inhibition at 6.39 µM ([1]; Plasmodium falciparum, 6.39 μM, read-out: Growth inhibition of P. falciparum Strain 3D-7): 47.4 ± 5.86%
- inhibition at 12.8 µM ([1]; Plasmodium falciparum, 12.8 μM, read-out: Growth inhibition of P. falciparum Strain 3D-7): 61.5 ± 0.71%
- inhibition at 25.59 µM ([1]; Plasmodium falciparum, 25.59 μM, read-out: Growth inhibition of P. falciparum Strain 3D-7): 64.7 ± 0.861%
- inhibition at 51.19 µM ([1]; Plasmodium falciparum, 51.19 μM, read-out: Growth inhibition of P. falciparum Strain 3D-7): 69 ± 0.888%
- inhibition at 102.38 µM ([1]; Plasmodium falciparum, 102.38 μM, read-out: Growth inhibition of P. falciparum Strain 3D-7): 75.86 ± 0.471%
- antiplasmodial activity category on P. falciparum 3D-7 ([1]; category by IC50): good (good (IC50 1–20 μM))
- cytotoxicity on WIDR (in words) (WIDR): weak
- IC50 on WIDR cell line (WIDR; in vitro cytotoxicity): 61.9 µg/mL (≈ 253 µM)
- inhibition activity of P. falciparum 3D-7 growth (flow cytometry) ([2]; 102.38 μM): showed inhibition activity
- inhibition at 204.75 µM ([2]; Plasmodium falciparum, 204.75 μM, read-out: inhibition activity of P. falciparum 3D-7 growth (flow cytometry)): > 90%
- IC50 (Vero cells; 24 hours incubation): 3.39 ± 0.435 mM
- IC50 (Vero cells; Chlorocebus sabaeus, Vero, 24 h, 24 hours incubation): 3.28 mM
- inhibition at 255.94 µM (Vero cells; Chlorocebus sabaeus, Vero, 24 h, 255.94 μM, read-out: Vero cell growth inhibition after 24 hours incubation): -50.3 ± 17.2%
- inhibition at 511.88 µM (Vero cells; Chlorocebus sabaeus, Vero, 24 h, 511.88 μM, read-out: Vero cell growth inhibition after 24 hours incubation): -4.13 ± 8.21%
- inhibition at 1023.75 µM (Vero cells; Chlorocebus sabaeus, Vero, 24 h, 1023.75 μM, read-out: Vero cell growth inhibition after 24 hours incubation): 15.9 ± 8.24%
- inhibition at 2047.5 µM (Vero cells; Chlorocebus sabaeus, Vero, 24 h, 2047.50 μM, read-out: Vero cell growth inhibition after 24 hours incubation): 28 ± 5.69%
- inhibition at 4095 µM (Vero cells; Chlorocebus sabaeus, Vero, 24 h, 4095.00 μM, read-out: Vero cell growth inhibition after 24 hours incubation): 45.9 ± 5.51%
- inhibition at 8190.01 µM (Vero cells; Chlorocebus sabaeus, Vero, 24 h, 8190.01 μM, read-out: Vero cell growth inhibition after 24 hours incubation): 89.4 ± 1.9%
- IC50 (Vero cells; Chlorocebus sabaeus, Vero): 802 µg/mL
- Selectivity index (over strains 3D-7 and FCR-3) (Vero cells; cytotoxicity/antiplasmodium ratio on P. falciparum 3D-7 and FCR-3): more than 10
- Selectivity index 3D-7 (Vero cells; ratio IC50 on Vero cell/IC50 on P. falciparum 3D-7): 556.54
- Selectivity index FCR-3 (Vero cells; ratio IC50 on Vero cell/IC50 on P. falciparum FCR-3): 502.20
